# How the values were obtained:
# Histamine H2 receptor = Histamine H2 receptor (Homo sapiens, UniProt P25021); format: cell membranes, CHO-K1, Membrane; details: cho-k1; further: in other assays of this panel Not Active means under 50% inhibition at 10 µM
# [1] = molecular target: T1, 3-hydroxy-3-methylglutaryl-coenzyme A reductase (Homo sapiens, UniProt P04035); design: species or system Escherichia coli;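 further: enzyme inhibition assay of HMG-CoA reductase using radiolabeled [14C]HMG-CoA as substrate; in other assays of this panel Not Active means under 50% inhibition at 10 µM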
# T1 sequence (P04035 whole entry): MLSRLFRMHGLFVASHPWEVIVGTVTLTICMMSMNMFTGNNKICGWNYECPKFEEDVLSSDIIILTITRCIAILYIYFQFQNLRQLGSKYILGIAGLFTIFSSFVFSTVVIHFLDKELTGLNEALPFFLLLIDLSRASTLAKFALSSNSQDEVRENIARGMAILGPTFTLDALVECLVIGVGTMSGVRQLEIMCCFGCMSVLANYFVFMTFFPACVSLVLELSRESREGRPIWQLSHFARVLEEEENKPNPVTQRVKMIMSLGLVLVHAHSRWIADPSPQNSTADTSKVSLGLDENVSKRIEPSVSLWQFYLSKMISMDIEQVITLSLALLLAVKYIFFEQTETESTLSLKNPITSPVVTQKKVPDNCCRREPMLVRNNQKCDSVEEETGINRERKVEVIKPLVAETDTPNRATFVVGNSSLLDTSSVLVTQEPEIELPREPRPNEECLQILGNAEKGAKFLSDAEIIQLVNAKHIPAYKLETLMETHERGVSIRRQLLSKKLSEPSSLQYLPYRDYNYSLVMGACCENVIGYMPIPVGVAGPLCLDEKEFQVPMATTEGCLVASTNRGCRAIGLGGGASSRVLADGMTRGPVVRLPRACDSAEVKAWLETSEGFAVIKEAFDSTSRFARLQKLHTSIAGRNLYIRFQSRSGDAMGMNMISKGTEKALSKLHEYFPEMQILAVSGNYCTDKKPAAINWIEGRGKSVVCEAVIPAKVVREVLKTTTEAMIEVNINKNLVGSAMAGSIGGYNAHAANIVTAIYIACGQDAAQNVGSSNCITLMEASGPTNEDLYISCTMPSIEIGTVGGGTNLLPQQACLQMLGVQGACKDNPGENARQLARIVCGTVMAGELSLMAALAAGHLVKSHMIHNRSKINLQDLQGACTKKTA
# Insulin receptor = Insulin receptor (Rattus norvegicus, UniProt P15127); format: cell membranes, Wistar, Liver, Membrane; further: in other assays of this panel Not Active means under 50% inhibition at 10 µM
# Melanocortin receptor 5 = Melanocortin receptor 5 (Homo sapiens, UniProt P33032); format: cell membranes, HEK293, Membrane; details: hek293; further: in other assays of this panel Not Active means under 50% inhibition at 10 µM
# [2] = DRUGMATRIX: Nicotinic Acetylcholine radioligand binding (ligand: [125I] Epibatidine); format: cell membranes, Membrane; details: imr-32; Not Active = under 50% inhibition at 10 µM
# Cytochrome P450 2A6 = molecular target: T2, Cytochrome P450 2A6 (Homo sapiens, UniProt P11509); details: bti-tn-5b1-4; further: in other assays of this panel Not Active means under 50% inhibition at 10 µM
# T2 sequence (P11509 whole entry): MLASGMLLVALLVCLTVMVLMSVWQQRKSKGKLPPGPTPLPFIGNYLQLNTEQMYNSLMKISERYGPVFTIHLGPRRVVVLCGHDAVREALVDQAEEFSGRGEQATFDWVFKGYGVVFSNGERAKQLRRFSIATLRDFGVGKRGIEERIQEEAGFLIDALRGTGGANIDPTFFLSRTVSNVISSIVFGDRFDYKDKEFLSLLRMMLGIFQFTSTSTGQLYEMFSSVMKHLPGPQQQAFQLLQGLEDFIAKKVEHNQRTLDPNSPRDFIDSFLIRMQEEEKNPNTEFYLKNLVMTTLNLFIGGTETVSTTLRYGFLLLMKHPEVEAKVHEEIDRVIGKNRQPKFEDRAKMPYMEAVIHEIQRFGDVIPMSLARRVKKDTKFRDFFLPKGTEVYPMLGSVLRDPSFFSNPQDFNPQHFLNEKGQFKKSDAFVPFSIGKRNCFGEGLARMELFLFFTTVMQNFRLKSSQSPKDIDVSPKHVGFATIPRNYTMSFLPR
# Sequence of Insulin receptor (P15127 27-759 limits assumed): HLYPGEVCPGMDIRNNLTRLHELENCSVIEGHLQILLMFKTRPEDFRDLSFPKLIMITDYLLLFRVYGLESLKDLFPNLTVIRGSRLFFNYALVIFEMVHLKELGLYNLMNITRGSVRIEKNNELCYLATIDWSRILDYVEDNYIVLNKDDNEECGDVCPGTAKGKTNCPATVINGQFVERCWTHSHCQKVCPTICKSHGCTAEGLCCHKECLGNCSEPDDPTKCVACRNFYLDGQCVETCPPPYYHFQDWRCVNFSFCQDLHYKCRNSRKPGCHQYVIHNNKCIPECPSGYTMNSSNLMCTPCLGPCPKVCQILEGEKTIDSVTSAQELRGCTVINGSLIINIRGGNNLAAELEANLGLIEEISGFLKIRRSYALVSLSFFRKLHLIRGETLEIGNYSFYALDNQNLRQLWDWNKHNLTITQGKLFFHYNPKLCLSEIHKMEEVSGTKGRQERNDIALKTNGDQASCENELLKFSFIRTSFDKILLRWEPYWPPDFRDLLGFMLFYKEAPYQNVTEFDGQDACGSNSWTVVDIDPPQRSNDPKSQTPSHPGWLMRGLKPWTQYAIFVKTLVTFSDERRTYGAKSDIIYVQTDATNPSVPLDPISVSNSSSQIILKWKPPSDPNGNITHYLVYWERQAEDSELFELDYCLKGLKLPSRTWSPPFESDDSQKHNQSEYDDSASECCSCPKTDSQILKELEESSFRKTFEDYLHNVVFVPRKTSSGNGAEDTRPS
# Sequence of Insulin receptor (P15127 764-1383 limits assumed): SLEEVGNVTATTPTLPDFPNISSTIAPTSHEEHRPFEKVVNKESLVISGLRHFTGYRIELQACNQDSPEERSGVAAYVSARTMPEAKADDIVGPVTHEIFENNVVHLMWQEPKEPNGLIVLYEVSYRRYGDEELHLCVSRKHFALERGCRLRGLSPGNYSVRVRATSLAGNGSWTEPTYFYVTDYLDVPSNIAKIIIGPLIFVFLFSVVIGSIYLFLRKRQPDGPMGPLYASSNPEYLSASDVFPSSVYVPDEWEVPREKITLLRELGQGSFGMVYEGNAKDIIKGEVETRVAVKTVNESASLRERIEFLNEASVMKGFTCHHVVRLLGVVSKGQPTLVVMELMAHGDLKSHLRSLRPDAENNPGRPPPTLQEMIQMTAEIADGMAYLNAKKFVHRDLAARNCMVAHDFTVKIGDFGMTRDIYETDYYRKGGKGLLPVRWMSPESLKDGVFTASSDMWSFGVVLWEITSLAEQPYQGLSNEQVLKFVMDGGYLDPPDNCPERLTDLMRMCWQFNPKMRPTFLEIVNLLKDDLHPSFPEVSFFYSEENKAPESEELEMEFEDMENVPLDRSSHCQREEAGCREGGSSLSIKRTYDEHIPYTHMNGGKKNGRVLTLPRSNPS
# Sequence of Melanocortin receptor 5 (P33032 whole entry): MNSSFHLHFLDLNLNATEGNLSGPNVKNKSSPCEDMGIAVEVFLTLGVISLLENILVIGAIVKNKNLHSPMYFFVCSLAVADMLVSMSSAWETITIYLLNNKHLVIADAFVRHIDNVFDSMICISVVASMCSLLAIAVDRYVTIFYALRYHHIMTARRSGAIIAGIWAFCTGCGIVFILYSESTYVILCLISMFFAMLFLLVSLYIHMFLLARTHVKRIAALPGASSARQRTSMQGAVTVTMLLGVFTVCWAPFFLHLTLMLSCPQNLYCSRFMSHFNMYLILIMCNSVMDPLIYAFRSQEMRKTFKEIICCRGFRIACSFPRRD
# Sequence of Histamine H2 receptor (P25021 whole entry): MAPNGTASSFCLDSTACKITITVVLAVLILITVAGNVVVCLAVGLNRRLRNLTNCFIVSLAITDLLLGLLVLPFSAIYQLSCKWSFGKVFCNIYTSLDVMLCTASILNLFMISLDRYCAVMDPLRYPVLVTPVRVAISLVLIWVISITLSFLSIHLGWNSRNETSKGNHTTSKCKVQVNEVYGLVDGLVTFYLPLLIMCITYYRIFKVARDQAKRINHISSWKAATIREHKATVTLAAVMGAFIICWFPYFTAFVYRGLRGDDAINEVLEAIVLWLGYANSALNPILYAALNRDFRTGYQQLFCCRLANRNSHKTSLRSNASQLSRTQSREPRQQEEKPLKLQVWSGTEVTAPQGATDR
Compound,IC50 (Histamine H2 receptor),IC50 [1],IC50 (Insulin receptor),IC50 (Melanocortin receptor 5),IC50 [2],Ki [2],IC50 (Cytochrome P450 2A6),Ki (Cytochrome P450 2A6),Ki (Histamine H2 receptor),Ki [1],Ki (Insulin receptor),IC50 (Melanocortin receptor 5; read-out: IC50),Ki (Melanocortin receptor 5; read-out: Ki),Ki (Melanocortin receptor 5)
O=C1O[C@H]([C@@H](O)CO)C(O)=C1O [ASCORBIC ACID],Not Active,Not Active,Not Active,Not Active,Not Active,Not Active,Not Active,Not Active,–,–,–,–,–,–
NC(=O)C[S+]([O-])C(c1ccccc1)c1ccccc1 (stereo not given) [MODAFINIL],Not Active,Not Active,Not Active,Not Active,Not Active,Not Active,Not Active,Not Active,–,–,–,–,–,–
CCN(CC)CCOCCC1=CCC2CC1C2(C)C (stereo not given) [MYRTECAINE],Not Active,Not Active,Not Active,Not Active,Not Active,Not Active,Not Active,Not Active,–,–,–,–,–,–
COc1ccc2cc3[n+](cc2c1OC)CCc1cc2c(cc1-3)OCO2.[Cl-] [BERBERINE CHLORIDE],Not Active,Not Active,Not Active,Not Active,Not Active,Not Active,Not Active,Not Active,–,–,–,–,–,–
GRAMICIDIN,Not Active,Not Active,Not Active,–,Not Active,Not Active,Not Active,Not Active,Not Active,Not Active,Not Active,2010 nM,1890 nM,–
CCC1(C)CC(=O)NC1=O (stereo not given) [ETHOSUXIMIDE],Not Active,Not Active,Not Active,Not Active,Not Active,Not Active,Not Active,Not Active,–,–,–,–,–,–
Cc1nnc2n1-c1ccc(Cl)cc1C(c1ccccc1)=NC2 [ALPRAZOLAM],Not Active,Not Active,Not Active,Not Active,Not Active,Not Active,Not Active,Not Active,–,–,–,–,–,–
COc1ccc(C(=O)N2CCCC2=O)cc1,Not Active,Not Active,Not Active,Not Active,Not Active,Not Active,Not Active,Not Active,–,–,–,–,–,–
GENTAMICIN,Not Active,Not Active,Not Active,Not Active,Not Active,Not Active,Not Active,Not Active,Not Active,Not Active,Not Active,–,–,Not Active
CC(C)NNC(=O)c1ccncc1 [IPRONIAZID],Not Active,Not Active,Not Active,Not Active,Not Active,Not Active,Not Active,Not Active,–,–,–,–,–,–
CCCNCC(O)COc1ccccc1C(=O)CCc1ccccc1 (stereo not given) [PROPAFENONE],Not Active,Not Active,Not Active,Not Active,Not Active,Not Active,Not Active,Not Active,–,–,–,–,–,–
O=c1cc(N2CCOCC2)oc2c(-c3ccccc3)cccc12 [LY-294002],Not Active,Not Active,Not Active,Not Active,Not Active,Not Active,Not Active,Not Active,–,–,–,–,–,–
NCCCC(O)(P(=O)(O)O)P(=O)(O)O [ALENDRONIC ACID],Not Active,Not Active,Not Active,Not Active,Not Active,Not Active,Not Active,Not Active,–,–,–,–,–,–
Nc1ccc2c3c(cccc13)C(=O)NC2=O,Not Active,Not Active,Not Active,Not Active,Not Active,Not Active,Not Active,Not Active,–,–,–,–,–,–
CC(C)(C)NC(=O)[C@H]1CC[C@H]2[C@@H]3CC[C@H]4NC(=O)C=C[C@]4(C)[C@H]3CC[C@]12C [FINASTERIDE],Not Active,Not Active,Not Active,Not Active,Not Active,Not Active,Not Active,Not Active,–,–,–,–,–,–
CC[C@H](C)[C@H]1O[C@]2(C=C[C@@H]1C)C[C@@H]1C[C@@H](C/C=C(\C)[C@@H](O[C@H]3C[C@H](OC)[C@@H](O[C@H]4C[C@H](OC)[C@@H](O)[C@H](C)O4)[C@H](C)O3)[C@@H](C)/C=C/C=C3\CO[C@@H]4[C@H](O)C(C)=C[C@@H](C(=O)O1)[C@]34O)O2.CO[C@H]1C[C@H](O[C@H]2[C@H](C)O[C@@H](O[C@@H]3/C(C)=C/C[C@@H]4C[C@@H](C[C@]5(C=C[C@H](C)[C@@H](C(C)C)O5)O4)OC(=O)[C@@H]4C=C(C)[C@@H](O)[C@H]5OC/C(=C\C=C\[C@@H]3C)[C@]54O)C[C@@H]2OC)O[C@@H](C)[C@@H]1O [ABAMECTIN],Not Active,Not Active,Not Active,Not Active,Not Active,Not Active,Not Active,Not Active,–,–,–,–,–,–
Cn1c(=O)c2[nH]cnc2n(C)c1=O.Cn1c(=O)c2[nH]cnc2n(C)c1=O.NCCN [AMINOPHYLLINE],Not Active,Not Active,Not Active,Not Active,Not Active,Not Active,Not Active,Not Active,–,–,–,–,–,–
C#C[C@]1(OC(C)=O)CC[C@H]2[C@@H]3CCC4=C[C@@H](OC(C)=O)CC[C@@H]4[C@H]3CC[C@@]21C [ETHYNODIOL DIACETATE],Not Active,Not Active,Not Active,Not Active,Not Active,Not Active,Not Active,Not Active,–,–,–,–,–,–
OC(CCCN1CCCCC1)(c1ccccc1)c1ccccc1 [DIPHENIDOL],Not Active,Not Active,Not Active,Not Active,Not Active,Not Active,Not Active,Not Active,–,–,–,–,–,–
CCC(=O)O[C@]1(C(=O)CCl)[C@@H](C)C[C@H]2[C@@H]3CCC4=CC(=O)C=C[C@]4(C)[C@@]3(F)[C@@H](O)C[C@@]21C [CLOBETASOL PROPIONATE],Not Active,Not Active,Not Active,Not Active,Not Active,Not Active,Not Active,Not Active,–,–,–,–,–,–
CCCN(CCC)S(=O)(=O)c1ccc(C(=O)O)cc1 [PROBENECID],Not Active,Not Active,Not Active,Not Active,Not Active,Not Active,Not Active,Not Active,–,–,–,–,–,–
O=C(O)CCNC(=O)c1ccccc1 [BETAMIPRON],Not Active,Not Active,Not Active,Not Active,Not Active,Not Active,Not Active,Not Active,–,–,–,–,–,–
C[C@H]1O[C@@H](n2cc(F)c(=O)[nH]c2=O)[C@H](O)[C@@H]1O [DOXIFLURIDINE],Not Active,Not Active,Not Active,Not Active,Not Active,Not Active,Not Active,Not Active,–,–,–,–,–,–
CC[C@H]1CN2CCc3cc(OC)c(OC)cc3[C@@H]2C[C@@H]1C[C@H]1NCCc2cc(OC)c(OC)cc21 [EMETINE],Not Active,Not Active,Not Active,Not Active,Not Active,Not Active,Not Active,Not Active,–,–,–,–,–,–

# — ChEMBL document CHEMBL1909046, “DrugMatrix in vitro pharmacology data”
